What was measured:
Details in all cases: Compound concentration 100.0 nM
[1] = target: Macrophage colony-stimulating factor 1 receptor (Homo sapiens) (UniProt P07333)
[2] = target: Cyclin-dependent kinase 4 (Homo sapiens) (UniProt P11802)
[3] = target: Mast/stem cell growth factor receptor Kit (Homo sapiens) (UniProt P10721)
[4] = target: Tyrosine-protein kinase CSK (Homo sapiens) (UniProt P41240)
[5] = target: Serine/threonine-protein kinase PAK 3 (Homo sapiens) (UniProt O75914)
[6] = tested on: Proto-oncogene tyrosine-protein kinase receptor Ret (Homo sapiens), P07949 [V804M]
[7] = tested on: Tyrosine-protein kinase ABL1 (Homo sapiens), P00519 [F317I]
[8] = target: Dual specificity tyrosine-phosphorylation-regulated kinase 1A (Homo sapiens) (UniProt Q13627)
[9] = target: Tyrosine-protein kinase TXK (Homo sapiens) (UniProt P42681)
[10] = target: Serine/threonine-protein kinase D2 (Homo sapiens) (UniProt Q9BZL6)
[11] = target: Activin receptor type-1B (Homo sapiens) (UniProt P36896)
[12] = target: Serine/threonine-protein kinase pim-2 (Homo sapiens) (UniProt Q9P1W9)
[13] = target: Tyrosine-protein kinase Fer (Homo sapiens) (UniProt P16591)
[14] = target: Hormonally up-regulated neu tumor-associated kinase (Homo sapiens) (UniProt P57058)
[15] = target: Protein kinase C theta type (Homo sapiens) (UniProt Q04759)
[16] = target: Fibroblast growth factor receptor 4 (Homo sapiens) (UniProt P22455)
[17] = target: Serine/threonine-protein kinase SBK1 (Homo sapiens) (UniProt Q52WX2)
[18] = target: MAP kinase-interacting serine/threonine-protein kinase 1 (Homo sapiens) (UniProt Q9BUB5)
[19] = tested on: Phosphatidylinositol 4,5-bisphosphate 3-kinase catalytic subunit alpha isoform (Homo sapiens), P42336 [E545A]
[20] = target: Serine/threonine-protein kinase VRK2 (Homo sapiens) (UniProt Q86Y07)
[21] = target: Serine/threonine-protein kinase Sgk1 (Homo sapiens) (UniProt O00141)
[22] = target: Serine/threonine-protein kinase TAO3 (Homo sapiens) (UniProt Q9H2K8)
[23] = target: Serine/threonine-protein kinase OSR1 (Homo sapiens) (UniProt O95747)
[24] = target: SRSF protein kinase 2 (Homo sapiens) (UniProt P78362)
[25] = target: Myosin light chain kinase 2, skeletal/cardiac muscle (Homo sapiens) (UniProt Q9H1R3)
[26] = target: Tyrosine-protein kinase ITK/TSK (Homo sapiens) (UniProt Q08881)
[27] = target: Serine/threonine-protein kinase PAK 4 (Homo sapiens) (UniProt O96013)
[28] = target: Serine/threonine-protein kinase D1 (Homo sapiens) (UniProt Q15139)
[29] = tested on: Mast/stem cell growth factor receptor Kit (Homo sapiens), P10721 [V559D]
[30] = target: Leukocyte tyrosine kinase receptor (Homo sapiens) (UniProt P29376)
[31] = target: Ephrin type-A receptor 7 (Homo sapiens) (UniProt Q15375)
[32] = target: Tyrosine-protein kinase Fes/Fps (Homo sapiens) (UniProt P07332)
[33] = target: Ribosomal protein S6 kinase alpha-3 (Homo sapiens) (UniProt P51812)
[34] = target: Casein kinase I isoform delta (Homo sapiens) (UniProt P48730)
[35] = target: Receptor-interacting serine/threonine-protein kinase 4 (Homo sapiens) (UniProt P57078)
[36] = tested on: Receptor-type tyrosine-protein kinase FLT3 (Homo sapiens), P36888 [UNDEFINED MUTATION]
[37] = target: Serine/threonine-protein kinase Nek3 (Homo sapiens) (UniProt P51956)
[38] = tested on: Receptor-type tyrosine-protein kinase FLT3 (Homo sapiens), P36888 [D835H]
[39] = target: Leucine-rich repeat serine/threonine-protein kinase 2 (Homo sapiens) (UniProt Q5S007)
[40] = target: Ephrin type-A receptor 4 (Homo sapiens) (UniProt P54764)
[41] = target: Ribosomal protein S6 kinase alpha-4 (Homo sapiens) (UniProt O75676)
[42] = tested on: Proto-oncogene tyrosine-protein kinase receptor Ret (Homo sapiens), P07949 [M918T]
[43] = target: Proto-oncogene tyrosine-protein kinase Src (Homo sapiens) (UniProt P12931)
[44] = target: Calcium/calmodulin-dependent protein kinase type 1G (Homo sapiens) (UniProt Q96NX5)
[45] = target: Uncharacterized serine/threonine-protein kinase SBK3 (Homo sapiens) (UniProt P0C264)

Chain of Serine/threonine-protein kinase SBK1 (Homo sapiens) (Q52WX2 whole entry): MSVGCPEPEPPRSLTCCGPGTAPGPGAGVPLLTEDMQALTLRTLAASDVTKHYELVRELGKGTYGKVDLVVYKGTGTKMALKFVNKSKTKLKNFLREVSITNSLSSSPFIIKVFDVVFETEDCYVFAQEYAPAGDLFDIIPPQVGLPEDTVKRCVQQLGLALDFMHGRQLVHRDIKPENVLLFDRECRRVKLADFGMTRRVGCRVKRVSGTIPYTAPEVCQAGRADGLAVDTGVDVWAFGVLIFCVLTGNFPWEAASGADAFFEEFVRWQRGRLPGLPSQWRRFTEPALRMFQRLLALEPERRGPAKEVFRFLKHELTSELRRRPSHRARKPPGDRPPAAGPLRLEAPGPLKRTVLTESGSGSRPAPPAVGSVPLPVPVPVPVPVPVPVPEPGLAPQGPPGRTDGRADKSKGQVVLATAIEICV
Chain of Myosin light chain kinase 2, skeletal/cardiac muscle (Homo sapiens) (Q9H1R3 whole entry): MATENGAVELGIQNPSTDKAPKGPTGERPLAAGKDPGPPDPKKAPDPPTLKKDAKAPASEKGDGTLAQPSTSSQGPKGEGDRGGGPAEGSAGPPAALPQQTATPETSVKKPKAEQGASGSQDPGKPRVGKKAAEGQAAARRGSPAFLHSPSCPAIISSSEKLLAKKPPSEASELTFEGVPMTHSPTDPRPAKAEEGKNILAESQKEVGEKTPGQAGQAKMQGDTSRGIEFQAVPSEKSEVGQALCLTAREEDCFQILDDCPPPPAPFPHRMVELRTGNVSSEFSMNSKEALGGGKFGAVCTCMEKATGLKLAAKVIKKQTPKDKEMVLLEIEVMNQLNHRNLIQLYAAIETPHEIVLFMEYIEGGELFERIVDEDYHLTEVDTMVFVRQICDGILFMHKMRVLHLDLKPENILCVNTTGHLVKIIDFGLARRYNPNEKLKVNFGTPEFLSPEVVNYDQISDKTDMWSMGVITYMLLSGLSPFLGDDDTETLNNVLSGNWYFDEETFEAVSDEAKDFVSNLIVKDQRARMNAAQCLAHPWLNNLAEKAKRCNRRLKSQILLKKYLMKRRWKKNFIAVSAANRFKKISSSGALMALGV
Chain of Proto-oncogene tyrosine-protein kinase Src (Homo sapiens) (P12931 2-536 limits assumed): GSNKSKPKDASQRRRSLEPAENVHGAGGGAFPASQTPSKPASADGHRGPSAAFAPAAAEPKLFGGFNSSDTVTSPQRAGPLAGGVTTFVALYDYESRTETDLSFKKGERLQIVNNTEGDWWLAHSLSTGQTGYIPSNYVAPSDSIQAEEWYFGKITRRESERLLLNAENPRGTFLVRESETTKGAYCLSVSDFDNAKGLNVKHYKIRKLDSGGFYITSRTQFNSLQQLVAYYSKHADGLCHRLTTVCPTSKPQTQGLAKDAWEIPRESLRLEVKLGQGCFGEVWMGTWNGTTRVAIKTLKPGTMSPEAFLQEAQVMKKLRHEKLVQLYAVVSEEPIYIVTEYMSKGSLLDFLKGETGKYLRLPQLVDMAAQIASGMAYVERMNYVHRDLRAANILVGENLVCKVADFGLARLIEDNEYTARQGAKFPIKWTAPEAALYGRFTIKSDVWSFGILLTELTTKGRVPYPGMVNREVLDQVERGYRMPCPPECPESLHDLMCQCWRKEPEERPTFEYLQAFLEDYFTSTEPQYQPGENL
Chain of Phosphatidylinositol 4,5-bisphosphate 3-kinase catalytic subunit alpha isoform (Homo sapiens), P42336 [E545A] (P42336 whole entry E545A, canonical isoform): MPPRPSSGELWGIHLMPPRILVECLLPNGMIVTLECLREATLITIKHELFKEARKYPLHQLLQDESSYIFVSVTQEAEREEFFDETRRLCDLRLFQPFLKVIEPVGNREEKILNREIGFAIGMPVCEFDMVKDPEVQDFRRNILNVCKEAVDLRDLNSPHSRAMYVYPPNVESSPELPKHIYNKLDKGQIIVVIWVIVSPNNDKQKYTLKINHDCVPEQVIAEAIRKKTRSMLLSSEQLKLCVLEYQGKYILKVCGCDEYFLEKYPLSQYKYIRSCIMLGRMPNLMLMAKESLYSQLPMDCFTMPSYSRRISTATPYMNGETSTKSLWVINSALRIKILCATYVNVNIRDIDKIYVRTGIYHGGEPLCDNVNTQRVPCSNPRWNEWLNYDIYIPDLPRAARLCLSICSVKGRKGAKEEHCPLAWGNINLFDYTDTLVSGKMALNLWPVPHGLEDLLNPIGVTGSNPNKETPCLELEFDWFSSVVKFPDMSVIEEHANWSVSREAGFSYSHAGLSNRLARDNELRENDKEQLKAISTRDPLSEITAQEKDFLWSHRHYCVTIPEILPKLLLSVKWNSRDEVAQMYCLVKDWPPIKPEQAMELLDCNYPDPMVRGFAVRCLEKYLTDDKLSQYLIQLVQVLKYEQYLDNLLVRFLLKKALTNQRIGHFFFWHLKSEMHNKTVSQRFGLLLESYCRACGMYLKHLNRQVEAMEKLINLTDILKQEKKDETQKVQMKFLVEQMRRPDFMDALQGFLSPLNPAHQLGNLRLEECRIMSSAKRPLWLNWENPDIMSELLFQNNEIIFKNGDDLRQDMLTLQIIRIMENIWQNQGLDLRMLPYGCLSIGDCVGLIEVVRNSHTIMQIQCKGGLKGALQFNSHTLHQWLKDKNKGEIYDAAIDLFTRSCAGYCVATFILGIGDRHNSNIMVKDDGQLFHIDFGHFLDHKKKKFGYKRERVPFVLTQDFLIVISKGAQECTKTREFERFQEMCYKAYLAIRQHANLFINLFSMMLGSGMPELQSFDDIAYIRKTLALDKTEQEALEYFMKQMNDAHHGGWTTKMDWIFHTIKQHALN
Chain of Serine/threonine-protein kinase D2 (Homo sapiens) (Q9BZL6 whole entry): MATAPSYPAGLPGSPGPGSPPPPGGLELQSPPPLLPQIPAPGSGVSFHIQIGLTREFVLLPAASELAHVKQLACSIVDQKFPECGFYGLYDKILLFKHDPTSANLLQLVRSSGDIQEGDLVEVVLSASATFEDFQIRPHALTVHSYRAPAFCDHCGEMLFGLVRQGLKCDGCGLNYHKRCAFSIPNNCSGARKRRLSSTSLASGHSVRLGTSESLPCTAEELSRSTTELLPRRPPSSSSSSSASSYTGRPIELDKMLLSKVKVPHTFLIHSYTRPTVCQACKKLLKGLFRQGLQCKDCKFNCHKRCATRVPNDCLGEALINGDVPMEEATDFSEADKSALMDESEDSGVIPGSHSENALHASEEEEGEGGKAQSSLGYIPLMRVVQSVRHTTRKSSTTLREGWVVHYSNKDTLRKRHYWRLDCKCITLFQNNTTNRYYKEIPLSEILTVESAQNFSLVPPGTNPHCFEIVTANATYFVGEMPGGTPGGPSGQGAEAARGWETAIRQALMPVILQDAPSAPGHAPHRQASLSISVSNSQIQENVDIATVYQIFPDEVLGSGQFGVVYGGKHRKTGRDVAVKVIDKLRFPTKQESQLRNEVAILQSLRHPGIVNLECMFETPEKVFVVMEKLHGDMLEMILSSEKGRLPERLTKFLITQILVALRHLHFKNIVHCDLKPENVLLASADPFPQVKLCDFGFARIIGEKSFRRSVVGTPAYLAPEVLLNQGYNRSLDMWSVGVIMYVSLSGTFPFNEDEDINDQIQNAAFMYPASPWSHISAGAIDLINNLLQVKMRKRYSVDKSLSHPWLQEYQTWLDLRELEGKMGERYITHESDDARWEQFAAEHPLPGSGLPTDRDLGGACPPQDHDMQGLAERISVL
Chain of Calcium/calmodulin-dependent protein kinase type 1G (Homo sapiens) (Q96NX5 whole entry): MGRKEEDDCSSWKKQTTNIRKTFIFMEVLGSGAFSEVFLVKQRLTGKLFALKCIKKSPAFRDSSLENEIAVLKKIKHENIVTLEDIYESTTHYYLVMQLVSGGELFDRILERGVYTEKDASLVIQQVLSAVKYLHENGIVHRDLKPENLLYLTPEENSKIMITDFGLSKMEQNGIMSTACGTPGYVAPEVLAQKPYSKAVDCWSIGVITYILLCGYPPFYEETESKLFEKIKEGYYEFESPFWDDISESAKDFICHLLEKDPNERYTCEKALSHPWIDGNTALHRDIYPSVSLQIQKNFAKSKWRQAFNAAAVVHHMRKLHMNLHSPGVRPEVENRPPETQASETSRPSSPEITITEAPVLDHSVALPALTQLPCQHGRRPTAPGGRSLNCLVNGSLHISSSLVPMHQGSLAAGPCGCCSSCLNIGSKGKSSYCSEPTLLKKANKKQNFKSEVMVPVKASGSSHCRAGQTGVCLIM
Chain of Serine/threonine-protein kinase OSR1 (Homo sapiens) (O95747 2-527 limits assumed): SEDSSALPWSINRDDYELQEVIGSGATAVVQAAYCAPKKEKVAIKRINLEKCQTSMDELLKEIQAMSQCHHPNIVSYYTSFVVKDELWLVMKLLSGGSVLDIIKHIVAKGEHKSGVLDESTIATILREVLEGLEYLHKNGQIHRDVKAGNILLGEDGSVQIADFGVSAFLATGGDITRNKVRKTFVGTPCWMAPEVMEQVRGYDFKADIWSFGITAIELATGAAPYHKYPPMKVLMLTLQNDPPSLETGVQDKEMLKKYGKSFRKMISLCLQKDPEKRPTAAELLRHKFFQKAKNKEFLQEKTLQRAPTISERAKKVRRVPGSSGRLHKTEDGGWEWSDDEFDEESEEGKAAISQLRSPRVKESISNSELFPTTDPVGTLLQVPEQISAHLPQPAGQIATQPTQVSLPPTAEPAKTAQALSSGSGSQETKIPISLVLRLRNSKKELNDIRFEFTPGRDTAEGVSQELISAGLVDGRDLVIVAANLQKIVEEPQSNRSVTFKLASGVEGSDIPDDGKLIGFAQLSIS
Chain of Serine/threonine-protein kinase Sgk1 (Homo sapiens) (O00141 whole entry): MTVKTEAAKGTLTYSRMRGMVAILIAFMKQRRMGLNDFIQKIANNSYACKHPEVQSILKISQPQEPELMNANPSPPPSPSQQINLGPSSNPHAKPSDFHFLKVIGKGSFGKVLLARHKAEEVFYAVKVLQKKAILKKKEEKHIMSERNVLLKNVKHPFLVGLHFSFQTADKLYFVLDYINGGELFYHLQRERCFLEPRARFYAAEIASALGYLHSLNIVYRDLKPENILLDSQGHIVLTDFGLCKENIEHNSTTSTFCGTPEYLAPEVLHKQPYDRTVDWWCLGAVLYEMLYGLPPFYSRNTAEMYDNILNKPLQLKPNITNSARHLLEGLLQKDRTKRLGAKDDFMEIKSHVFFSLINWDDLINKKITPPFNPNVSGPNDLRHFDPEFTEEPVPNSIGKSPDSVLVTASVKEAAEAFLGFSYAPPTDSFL

Compound `CS(=O)(=O)N1CCCC(NC(=O)[C@H](CCC2CCCCC2)NC(=O)c2ccc(CNc3ncnc4c3nnn4-c3ccccc3)cc2)C1` (stereo not given in full) [SR-301] has a residual activity [1] of 100%, a residual activity [2] of 91% and a residual activity [3] of 89%. For the same compound, the residual activity [4] was 91%, the residual activity [5] was 100% and the residual activity [6] was 82%. The residual activity [7] was 95%, the residual activity [8] was 87% and the residual activity [9] was 77%. For the same compound, the residual activity [10] was 92%, the residual activity [11] was 94% and the residual activity [12] was 88%. The residual activity [13] was 86%, the residual activity [14] was 100% and the residual activity [15] was 90%. The residual activity [16] was 100%, the residual activity [17] was 82% and the residual activity [18] was 86%. It also gave a residual activity [19] of 100%, a residual activity [20] of 91% and a residual activity [21] of 100%. It also gave a residual activity [22] of 100%, a residual activity [23] of 100% and a residual activity [24] of 34%. For the same compound, the residual activity [25] was 90%, the residual activity [26] was 100% and the residual activity [27] was 100%. For the same compound, the residual activity [28] was 91%, the residual activity [29] was 93% and the residual activity [30] was 100%. It also gave a residual activity [31] of 98%, a residual activity [32] of 87% and a residual activity [33] of 100%. It also gave a residual activity [34] of 96%, a residual activity [35] of 100% and a residual activity [36] of 100%. The residual activity [37] was 100%, the residual activity [38] was 94% and the residual activity [39] was 51%. It also gave a residual activity [40] of 76%, a residual activity [41] of 91% and a residual activity [42] of 93%. The residual activity [43] was 94%, the residual activity [44] was 92% and the residual activity [45] was 100%.

`CS(=O)(=O)N1CCCC(NC(=O)[C@H](CCC2CCCCC2)NC(=O)c2ccc(CNC(=O)c3cnc4ccccn34)cc2)C1` (stereo not given in full) [SR-302] showed a residual activity [1] of 65%, a residual activity [2] of 99% and a residual activity [3] of 63%. For the same compound, the residual activity [4] was 100%, the residual activity [5] was 100% and the residual activity [6] was 100%. The residual activity [7] was 85%, the residual activity [8] was 100% and the residual activity [9] was 91%. For the same compound, the residual activity [10] was 100%, the residual activity [11] was 96% and the residual activity [12] was 100%. For the same compound, the residual activity [13] was 99%, the residual activity [14] was 100% and the residual activity [15] was 97%. The residual activity [16] was 100%, the residual activity [17] was 77% and the residual activity [18] was 100%. The residual activity [19] was 99%, the residual activity [20] was 76% and the residual activity [21] was 100%. It also gave a residual activity [22] of 83%, a residual activity [23] of 94% and a residual activity [24] of 83%. The residual activity [25] was 90%, the residual activity [26] was 90% and the residual activity [27] was 100%. It also gave a residual activity [28] of 93%, a residual activity [29] of 49% and a residual activity [30] of 100%. It also gave a residual activity [31] of 96%, a residual activity [32] of 100% and a residual activity [33] of 100%. The residual activity [34] was 84%, the residual activity [35] was 92% and the residual activity [36] was 86%. It also gave a residual activity [37] of 100%, a residual activity [38] of 100% and a residual activity [39] of 64%. The residual activity [40] was 98%, the residual activity [41] was 100% and the residual activity [42] was 93%. For the same compound, the residual activity [43] was 100%, the residual activity [44] was 84% and the residual activity [45] was 66%.

— ChEMBL document CHEMBL4507324 (2021)
